According to patent US11129835B2, “Methods and compositions for the inhibition of PIN1” (Beth Israel Deaconess Medical Center, Inc., priority 2012, dated 2021):
Square brackets hold non-standard residues; d marks the D form. Peptide text beside a SMILES is read from it. pT = C[C@@H](OP(=O)(O)O)[C@H](N)C(=O)O; 2Nal = N[C@@H](Cc1ccc2ccccc2c1)C(=O)O; Bta = N[C@@H](Cc1csc2ccccc12)C(=O)O; Pip = O=C(O)[C@@H]1CCCCN1

How the values were obtained:
MCF10A = test: cell viability, normal cell line; type: cell-based
Text: (§1) This discrepancy between cell lines was correlated with the RAs' ability to suppress Pin1 expression. Pin1 level was decreased by treatment of RAs in drugs-responsive SKBR3 and T47D, but not in drugs-irresponsive normal cells, MCF10A, in which Pin1 target protein, cyclin D1, served as biomarker of in vivo Pin1 activity.

SKBR3 = test: cell viability of breast cancer cell lines; type: cell-based
Text: as §1

T47D = test: cell viability of breast cancer cell lines; type: cell-based
Text: as §1

Pin1 and DAPK1 = Pin1 and DAPK1 (Homo sapiens, UniProt Q13526); test: association between Pin1 and DAPK1; type: binding
Chain of Pin1 and DAPK1 (Q13526 whole entry): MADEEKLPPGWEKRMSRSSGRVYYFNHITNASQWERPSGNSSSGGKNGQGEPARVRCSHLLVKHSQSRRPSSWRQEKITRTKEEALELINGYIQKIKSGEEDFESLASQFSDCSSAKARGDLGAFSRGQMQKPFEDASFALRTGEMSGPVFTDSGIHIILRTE

Pin1 [1] = target: T1, Pin1 (Homo sapiens, UniProt Q13526); test: PPIase assay; type: biochemical
T1 sequence (Q13526 whole entry): as above
Text: The anti-cancer effect of RAs was examined to determine whether it depends on RAR in the breast cancer cells. […] In the PPIase assay, Pin1 activity was blocked by either cis- or trans-RA in a dose-dependent manner.

[2] = tested on: Pin1 K63A, S67E, R68/69A, H59A or S71E; test: trans-RA binding to Pin1 point mutants
full length Pin1 = target: T2, full length Pin1 (Homo sapiens, UniProt Q13526); test: single-step fluorescence polarization-based displacement assay (FP-HTS), 384-well, HF488 probe; type: binding; settings: for Pin1 inhibition in the FP assay: cis-RA compared with trans-RA
T2 construct: FP-HTS in a 384-well plate format with full length Pin1
T2 sequence (Q13526 whole entry): as above
Description: A high-throughput screen for identifying Pin1 inhibitors was developed using a single-step fluorescence polarization-based displacement assay (FP-HTS).
The FP-HTS with a 5 nM probe and 200 nM Pin1 was used to conduct a pilot screen on a selected set of chemical libraries.
(§2) The anti-cancer effect of RAs was examined to determine whether it depends on RAR in the breast cancer cells.

[3] = tested on: mouse embryonic fibroblast (WT MEF, Pin1 KO MEF); test: trans-RA-mediated cell viability in WT and Pin1 knockout MEF; type: cell-based
Text: To further confirm this premise, wild-type mouse embryonic fibroblast (WT MEF) and Pin1 knockout MEF (Pin1 KO MEF) were used to test trans-RA-mediated cell viability.

Pin1 [4] = target: T1, Pin1; test: confirmatory Pin1 fluorescence polarization competition assay (Alexa488 reconfirmed); settings: for Alexa488 Reconfirmed Curve Class: confirmatory retest; for Emax: read-out: Alexa488 Reconfirmed Efficacy;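 as to all read-outs here: Pin1 competition with a HiFluor488-labelled peptide probe, read as fluorescence polarization after 10 min at room temperature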
Description: (§3) The goal of this assay was to identify small-molecule inhibitors of Pin1 using a fluorescence polarization competition assay (FIG. 1). […] Candidate compounds were screened in a concentration-titration series (e.g., 57 μM to 0.7 nM).
(§4) Pin1 (0.6 μM) was dispensed into black, solid 1536-well plates (32 rows by 48 columns) at 2 μL/well in Pin1 buffer (10 mM HEPES (pH 7.5), 10 mM NaCl, 0.01% Tween20, 1 mM DTT, and 1% glycerol). Next, 23 nL of compound or DMSO was delivered to each well using a pin tool (tip wash sequence: DMSO, IPA, MeOH, 3 s vacuum dry). Two μL of Pin1-1b-HiFluor488 peptide in buffer (10 mM HEPES (pH 7.5), 10 mM NaCl, 0.01% Tween20, 1 mM DTT, and 1% glycerol, 0.02 μM Pin1-1b-HiFluor488) or DMSO was then dispensed to each well using a pin tool (tip wash sequence: DMSO, IPA, MeOH, 3 s vacuum dry), and plates were incubated at room temperature for 10 min (Table 2). Each plate included controls with no candidate inhibitory compound (32 wells), with unlabeled Pin1-1c titration (3.5 mM to 0.020 mM in a 1:2 dilution series including 2 replicates per concentration; 32 wells), and without Pin1 (64 wells).
(§5) The fluorescence polarization signal of each well was measured on a ViewLux® plate reader using a 480/20 nm excitation filter and 540/25 nm S and P emission filters with a 20 second exposure with 2× binning (Table 2). Percent inhibitory activity was determined from corrected fluorescence polarization values.
(§6) Concentration-response curves were fitted to the signals arising from the resulting fluorescence polarization. The concentration-effect curves were then classified based on curve quality (r^2), response magnitude, and degree of measured activity. Compounds were subsequently categorized based on their curve class.

Pin1 [5] = target: T1, Pin1; test: Pin1 fluorescence polarization competition assay with Tamra-probe (secondary); settings: for Tamra Secondary Curve Class: Tamra-probe; for Emax: read-out: Tamra Secondary Efficacy
Description: An assay was developed for the identification of inhibitors of Pin1. […] Candidate compounds were screened in a concentration-titration series (e.g., 57 μM to 0.7 nM).
as §4, §5, §6
A further secondary assessment was accomplished by replacing the HiFluor-488-labeled probe with Tamra-probe, a red-shifted fluorophore.

Pin1 [6] = target: T1, Pin1; test: Pin1 fluorescence polarization competition assay, primary qHTS (HiFluor-488 / Alexa488 probe);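 also: Pin1 protein with fluorescent peptide probe, compound displacement read by fluorescence polarization, percent inhibition derived from corrected polarization values, concentration-response curves in 1536-well format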
Description: as §3, §4, §5, §6
Curves showing change polarized fluorescence may be categorized into 5 classes. Class 1 includes complete curves, having 2 asymptotes and an r^2 value of ≥0.9, with an efficacy of either >80% (class 1.1) or ≤80% (class 1.2). Class 1 curves may also be classified as noisy curves when efficacy is >80% and r^2<0.9 (class 1.3) or when efficacy is ≤80% and r^2<0.9 (class 1.4). Class 2 includes incomplete curves having 1 asymptote and an r^2 value of either >0.9 (subclass a) or <0.9 (subclass b), with an efficacy of either >80% (class 2.1) or ≤80% (class 2.2). Class 2 curves may also be classified as noisy curves when efficacy is >80% and r^2<0.9 (class 2.3) or when efficacy is ≤80% and r^2<0.9 (class 2.4). Class 3 includes single point activity curves having 1 asymptote and an efficacy >3 SD from the mean activity of the sample field at the highest tested concentration. […] A fifth class captures any curves not otherwise classified (FIG. 4).

breast cancer cells = test: RARa knockdown rescue of cis-RA-mediated cell death; type: cell-based
Text: as §2

[7] = Alexa488 Primary Potency, primary qHTS
[8] = Average HTS Potency, average over Alexa488 primary, Alexa488 reconfirmed and Tamra secondary assays
[9] = read-out: Alexa488 Primary Efficacy

Row | IC50 (Pin1 [4]) | Alexa488 Reconfirmed Curve Class (Pin1 [4]) | Emax (Pin1 [4]) | IC50 (Pin1 [5]) | Tamra Secondary Curve Class (Pin1 [5]) | Emax (Pin1 [5]) | IC50 (Pin1 [6]; [7]) | IC50 (Pin1 [6]; [8]) | Alexa488 Primary Curve Class (Pin1 [6]; primary qHTS) | Emax (Pin1 [6]; [9]) | Emax (Pin1 [6]; read-out: Average HTS Efficacy) | Compound | further results
1 |  |  |  |  |  |  |  |  |  |  |  | CC1=C(/C=C/C(C)=C/C=C/C(C)=C/C(=O)O)C(C)(C)CCC1 [trans-RA, all-trans retinoic acid] | cell viability (MCF10A): remained unaffected; IC50, cell viability (SKBR3): nano-molar range; IC50, cell viability (T47D): nano-molar range; association between Pin1 and DAPK1 (Pin1 and DAPK1): blocked the association between Pin1 and DAPK1 in a dose-dependent manner, with trans being more potent; Pin1 activity in the PPIase assay (Pin1 [1]): blocked; binding to Pin1 point mutants [2]: completely or significantly abolished; Pin1 inhibition in the FP assay (full length Pin1): even more prominent Pin1 inhibition than cis-RA; cell viability, Pin1 KO MEF versus WT MEF [3]: Pin1 KO MEF was more resistant to trans-RA than WT MEF; cell viability, Pin1 KO MEF re-expressing Pin1 ([3]; stably expressing WT Pin1 or W34 K63A Pin1 mutant): Pin1 KO MEF stably expressing WT Pin1, but not W34 K63A Pin1 mutant, enabled cells to re-sensitize trans-RA
2 |  |  |  |  |  |  |  |  |  |  |  | C[C@@H](OP(=O)(O)O)[C@H](NC(=O)[C@@H](N)Cc1csc2ccccc12)C(=O)N1CCCC[C@H]1C(=O)N[C@@H](Cc1ccc2ccccc2c1)C(=O)O [pTide, Bth-L-phos.Thr-Pip-Nal] (H-[Bta][pT][Pip][2Nal]-OH; N-terminus and C-terminus assumed) | displacement of HF488 probe from Pin1 (full length Pin1): displaced HF488 probe from Pin1; Kd (full length Pin1; four residue core structure (pTide) of the HF488 fluorescent probes): 0.258 µM
3 | 19 µM | 2.2 (≤80% (class 2.2)) | 62% | 19 µM | 2.2 (≤80% (class 2.2)) | 80% | 30 µM | 23 µM | 2.2 (≤80% (class 2.2)) | 88% | 77% | O=C(O)c1cc(Cl)c2c(c1)[C@@H]1C=CC[C@@H]1[C@H](c1ccc(S(=O)(=O)N3CCOCC3)cc1)N2 [Compound 41] | 
4 | 24 µM |  | 111% | 21 µM |  | 101% | 20 µM | 22 µM |  | 71% | 94% | COc1ccc(NC(=O)CN(C)C(=O)c2cc3c(s2)CCC3)cc1 [Compound 26] | 
5 | 2 µM |  | 89% | 3 µM |  | 88% | 9 µM | 4 µM |  | 89% | 89% | O=S(=O)(O)c1ccc(O)c2cc(Nc3ccccc3)ccc12 [Compound 13] | 
6 | 0.1 µM |  | 90% | 0.1 µM |  | 82% | 3 µM | 0.9 µM |  | 83% | 85% | Cc1ccc(C(=O)c2no[n+]([O-])c2C(=O)c2ccc(C)cc2)cc1 [Compound 29] | 
7 |  |  |  |  |  |  |  |  |  |  |  | CC1=C(/C=C/C(C)=C/C=C/C(C)=C\C(=O)O)C(C)(C)CCC1 [cis-RA, 13-cis-retinoic acid] | cell death after RARa knockdown (breast cancer cells): only partially rescue; cell viability (MCF10A): remained unaffected; IC50, cell viability (SKBR3): nano-molar range; IC50, cell viability (T47D): nano-molar range; association between Pin1 and DAPK1 (Pin1 and DAPK1): blocked the association between Pin1 and DAPK1 in a dose-dependent manner; Pin1 activity in the PPIase assay (Pin1 [1]): blocked; pilot screen hit ranking by Z-score (full length Pin1; 5 nM probe and 200 nM Pin1): top inhibitory chemical; Pin1 inhibition in the FP assay (full length Pin1): eventually catch up with trans-RA in the long-term incubation with Pin1
8 | 1 µM | 1.2 (≤80% (class 1.2)) | 59% | 8 µM |  | 85% | 21 µM | 10 µM | 1.2 (≤80% (class 1.2)) | 71% | 72% | COc1ccccc1Nc1ccc2c(O)cc(S(=O)(=O)O)cc2c1 [Compound 14] | 
9 | 27 µM | 2.2 (≤80% (class 2.2)) | 82% | 24 µM | 2.2 (≤80% (class 2.2)) | 73% | 19 µM | 23 µM | 1.2 (≤80% (class 1.2)) | 73% | 76% | COC(=O)COc1ccc(C2Nc3c(Cl)ccc(C(=O)O)c3C3C=CCC32)cc1 (centres unmarked) [Compound 42] | 
10 | 3 µM |  | 93% | 4 µM |  | 91% | 3 µM | 3 µM | 1.2 (≤80% (class 1.2)) | 65% | 83% | NS(=O)(=O)c1cc(C(=O)NC2CCSc3ccccc32)ccc1Cl (centres unmarked) [Compound 11] | 
11 | 10 µM |  | 99% | 24 µM | 2.2 (≤80% (class 2.2)) | 96% | 25 µM | 20 µM |  | 55% | 83% | COc1ccc(NS(=O)(=O)c2ccc3c(c2)[C@H]2C=CC[C@H]2[C@@H](c2ccc(C(=O)O)cc2)N3)cc1 [Compound 40] | 
12 |  | 2.2 (≤80% (class 2.2)) | 103% | 18 µM | 2.2 (≤80% (class 2.2)) | 52% | 45 µM | 31 µM | 2.2 (≤80% (class 2.2)) | 67% | 74% | O=C(O)C1Nc2c(C(F)(F)F)ccc(Cl)c2C2C=CCC12 (centres unmarked) [Compound 8] | 
13 | 2 µM | 1.2 (≤80% (class 1.2)) | 77% | 6 µM | 1.2 (≤80% (class 1.2)) | 70% | 14 µM | 7 µM |  | 73% | 73% | O=C(c1ccc(=O)oc1)N1CCOCC1 [Compound 20] | 
